pIC50: −log10 of the molar value.
Legend:
p210 BCR-ABL (wild type) = p210 BCR-ABL (wild type) (Homo sapiens, UniProt P00519); assay: Western blot of phospho-c-ABL; type: cell-based
[1] = biological target: p210 BCR-ABL T315I (p210^T315I) (Homo sapiens, UniProt P00519, T315I); assay: Western blot of phospho-c-ABL; type: cell-based

pIC50 (p210 BCR-ABL (wild type)): 5.60
pIC50 [1]: 4.76
Structure (SMILES): Cc1cnc(Nc2ccc(N3CCN(C)CC3)cc2)nc1Nc1cccc(S(=O)(=O)NC(C)(C)C)c1 [TG101209]

— article PMC5065108 (Molecular cancer therapeutics, 2016)
